18 compounds from US20140128352A1, “COMPOUNDS AND METHODS FOR MODULATING MITOCHONDRIAL METABOLISM AND REACTIVE OXYGEN SPECIES PRODUCTION” (Buck Institute for Research on Aging, priority 2012, published 2014) can be followed below.

Where two headings read alike, the source gives them in different places.

For experiment [1], the system named is ubiquinone binding site of complex I (IQ). In words: High-throughput screen: ROS production from ubiquinone binding site of complex I (IQ), isolated skeletal muscle mitochondria. The format is biochemical, rat. To be noted: percent change in ROS from DMSO controls.
The target in experiment [2] is T1, flavin binding site of complex I (IF) (Rattus norvegicus, UniProt Q5XIH3).
T1 construct: freshly isolated muscle mitochondria were assayed; from tissue; host or cells: rat skeletal muscle mitochondria (Wistar, Harlan Laboratories)
T1 sequence (Q5XIH3 21-464 limits assumed, one chain of several): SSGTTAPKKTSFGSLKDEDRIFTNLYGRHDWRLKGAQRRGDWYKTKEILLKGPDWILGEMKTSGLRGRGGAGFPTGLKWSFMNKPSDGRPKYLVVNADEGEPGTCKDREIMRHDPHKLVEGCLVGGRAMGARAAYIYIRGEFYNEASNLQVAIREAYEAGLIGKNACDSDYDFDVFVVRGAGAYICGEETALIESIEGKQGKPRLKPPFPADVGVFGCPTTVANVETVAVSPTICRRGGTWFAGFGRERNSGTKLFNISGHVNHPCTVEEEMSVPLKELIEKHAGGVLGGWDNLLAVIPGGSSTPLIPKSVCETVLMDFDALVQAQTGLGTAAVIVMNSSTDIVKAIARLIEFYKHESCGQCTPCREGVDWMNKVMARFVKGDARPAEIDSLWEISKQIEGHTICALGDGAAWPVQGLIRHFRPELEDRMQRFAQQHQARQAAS
Nature of the experiment: High-throughput screen: ROS production from flavin binding site of complex I (IF). The format is biochemical. Particulars: percent change in ROS from DMSO controls; for inhibition at 2.5 µM: Table 7, read-out: IF.
Procedure: (§1) Skeletal muscle mitochondria were isolated from 5-8 week old female Wistar rats (Harlan Laboratories). Minced muscle was homogenized in buffer containing bacterial protease Type VIII prior to differential centrifugation to separate mitochondria from other tissue components. Unless otherwise stated, freshly isolated muscle mitochondria were assayed in buffer containing 120 mM KCl, 5 mM HEPES, 1 mM EGTA, 0.3% (w/v) bovine serum albumin. Where indicated, CaCl2 was added to yield a final free concentration of 250 nM calcium at pH 7.0 at 37° C.
Master screening plates were prepared using a Biomek FX liquid handling workstation (Beckman) to transfer 1 μL of each compound into individual wells on 96-well storage plates (80 compounds per plate). […] Just prior to use, plates were brought to room temperature and diluted 300-fold with standard buffer (13.3X=33.3 μM). To monitor the performance of each assay throughout screening and to provide intra-plate normalization reference points, DMSO negative controls and known mitochondrial inhibitor positive controls were included on each Master compound plate.
(§2) Total amounts of superoxide and H2O2 production were determined fluorometrically as H2O2, without distinguishing between them, in the presence of exogenous superoxide dismutase (25 units/mL final), horseradish peroxidase (1 unit/mL final), and Amplex UltraRed (25 μM final) as described (Affourtit, C. et al. (2012) Measurement of proton leak and electron leak in isolated mitochondria. Methods Mol. Biol. 810: 165-82). Just prior to use, a bulk 3.3X solution was made in standard buffer and distributed into a 2 mL deep well 96-well transfer plate.
To assess the effects of a compound on ROS production from the flavin binding site of complex I (IF), Start Solution containing 5 mM glutamate, 5 mM malate and 4 μM rotenone was distributed into standard 96-well transfer plates. A Biomek FX workstation was programmed to dispense solutions into black 96-well assay plates. Solutions were dispensed to all assay plates in the following order: ROS Detection solution described in Example 3, Mitochondria solution described in Example 1 to a final concentration of 0.3 mg/ml, and Compound dilutions described in Example 2. Duplicate assay plates were made and each was initiated by the addition of 3.3X Start solution containing 5 mM glutamate, 5 mM malate and 4 μM rotenone. Plates were incubated in the dark at room temperature for 30-40 minutes before acquiring endpoint fluorescence using a Victor 3V plate reader (Perkin Elmer) equipped with 550/590 nm excitation/emission filters.
The fluorescence values in each well were scaled as the percent change from the intra-plate DMSO controls with the appropriate inhibitor positive controls defined as −100%. Following initial scaling, intra-plate normalized values were subjected to Tukey's two-way median polish to remove row and column dependent positional effects (Malo, N. et al. (2006) Statistical practice in high-throughput screening data analysis. Nat. Biotechnol. 24(2): 167-75).

In experiment [3] the target is T2, outer ubiquinone binding site of complex III (IIIQO) (Rattus norvegicus, UniProt P00159+P20788).
T2 construct: freshly isolated muscle mitochondria were assayed; from tissue; host or cells: rat skeletal muscle mitochondria (Wistar, Harlan Laboratories)
In words: High-throughput screen: ROS production from outer ubiquinone binding site of complex III (IIIQO). The format is biochemical. Particulars: percent change in ROS from DMSO controls; for IIIQO: Table 8.

Experiment [4] addresses T3, glycerol-3-phosphate dehydrogenase (GPDH) (Rattus norvegicus, UniProt P35571).
T3 construct: The activity of GPDH in intact mitochondria (0.3 mg/mL) was measured; from tissue; host or cells: rat skeletal muscle mitochondria (Wistar, Harlan Laboratories)
T3 sequence (P35571 43-727): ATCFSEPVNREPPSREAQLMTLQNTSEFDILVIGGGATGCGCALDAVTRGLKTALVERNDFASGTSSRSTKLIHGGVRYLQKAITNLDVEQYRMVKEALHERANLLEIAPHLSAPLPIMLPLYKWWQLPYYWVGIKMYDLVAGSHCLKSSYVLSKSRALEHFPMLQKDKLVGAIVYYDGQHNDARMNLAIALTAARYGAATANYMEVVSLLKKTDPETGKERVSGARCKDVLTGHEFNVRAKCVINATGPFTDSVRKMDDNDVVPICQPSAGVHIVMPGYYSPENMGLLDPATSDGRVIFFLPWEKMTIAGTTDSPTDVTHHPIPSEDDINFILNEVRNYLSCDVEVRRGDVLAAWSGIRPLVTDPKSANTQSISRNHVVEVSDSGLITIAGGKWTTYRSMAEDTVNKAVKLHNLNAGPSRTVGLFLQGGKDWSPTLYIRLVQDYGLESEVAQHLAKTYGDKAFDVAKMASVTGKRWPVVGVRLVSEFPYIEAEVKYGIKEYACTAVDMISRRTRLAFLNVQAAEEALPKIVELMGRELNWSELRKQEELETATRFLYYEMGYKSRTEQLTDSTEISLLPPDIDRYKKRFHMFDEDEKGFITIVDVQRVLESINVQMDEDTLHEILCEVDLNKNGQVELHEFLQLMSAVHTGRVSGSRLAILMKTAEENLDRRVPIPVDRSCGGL
Nature of the experiment: High-throughput screen: ROS production from glycerol-3-phosphate dehydrogenase (GPDH). Particulars: for inhibition: Table 7; for inhibition / GPDH: percent change in ROS from DMSO controls; for inhibition at 2.5 µM: Table 6, 25 mM glycerol phosphate, rotenone, antimycin A, malonate, myxothiazol, compounds 2.5 μM, scaled to IQ positive controls, read-out: % Reduction in ROS Production (GPDH). The format is biochemical. The arrangement: inhibition: dose or concentration left out as unconfirmed.

Experiment [5] relates to mitochondrial membrane potential (ΔΨm). In words: Membrane potential (ΔΨm) counterscreen with TMRM. Particulars: malate, nigericin.
Experiment [6] addresses T4, succinate dehydrogenase/complex II (SDH) (Rattus norvegicus, UniProt P21913+Q641Z9+Q6PCT8+Q920L2).
T4 construct: freshly isolated muscle mitochondria were assayed; from tissue; host or cells: rat skeletal muscle mitochondria (Wistar, Harlan Laboratories)
Nature of the experiment: High-throughput screen: ROS production from succinate dehydrogenase/complex II (SDH). The format is biochemical. Particulars: for inhibition at 2.5 µM: Table 7; for inhibition at 2.5 µM / SDH: percent change in ROS from DMSO controls.
Procedure: as §1
Just prior to use, plates were brought to room temperature and diluted 300-fold with standard buffer (13.3X=33.3 μM). To monitor the performance of each assay throughout screening and to provide intra-plate normalization reference points, DMSO negative controls and known mitochondrial inhibitor positive controls were included on each Master compound plate.
as §2
To assess the effects of a compound on ROS production from succinate dehydrogenase/complex II (SDH), Start Solution containing 15 μM palmitoyl carnitine, 2.5 μM antimycin A and 2 μM myxothiazol was distributed into standard 96-well transfer plates. A Biomek FX workstation was programmed to dispense solutions into black 96-well assay plates. Solutions were dispensed to all assay plates in the following order: ROS Detection solution described in Example 3, Mitochondria solution described in Example 1 to a final concentration of 0.3 mg/ml, and Compound dilutions described in Example 2. Duplicate assay plates were made and each was initiated by the addition of 3.3X Start solution containing 15 μM palmitoyl carnitine, 2.5 μM antimycin A and 2 μM myxothiazol. Plates were incubated in the dark at room temperature for 30-40 minutes before acquiring endpoint fluorescence using a Victor 3V plate reader (Perkin Elmer) equipped with 550/590 nm excitation/emission filters.
The fluorescence values in each well were scaled as the percent change from the intra-plate DMSO controls with the appropriate inhibitor positive controls defined as −100%. Following initial scaling, intra-plate normalized values were subjected to Tukey's two-way median polish to remove row and column dependent positional effects (Malo et al., 2006).

T4 sequence (Q920L2 35-656): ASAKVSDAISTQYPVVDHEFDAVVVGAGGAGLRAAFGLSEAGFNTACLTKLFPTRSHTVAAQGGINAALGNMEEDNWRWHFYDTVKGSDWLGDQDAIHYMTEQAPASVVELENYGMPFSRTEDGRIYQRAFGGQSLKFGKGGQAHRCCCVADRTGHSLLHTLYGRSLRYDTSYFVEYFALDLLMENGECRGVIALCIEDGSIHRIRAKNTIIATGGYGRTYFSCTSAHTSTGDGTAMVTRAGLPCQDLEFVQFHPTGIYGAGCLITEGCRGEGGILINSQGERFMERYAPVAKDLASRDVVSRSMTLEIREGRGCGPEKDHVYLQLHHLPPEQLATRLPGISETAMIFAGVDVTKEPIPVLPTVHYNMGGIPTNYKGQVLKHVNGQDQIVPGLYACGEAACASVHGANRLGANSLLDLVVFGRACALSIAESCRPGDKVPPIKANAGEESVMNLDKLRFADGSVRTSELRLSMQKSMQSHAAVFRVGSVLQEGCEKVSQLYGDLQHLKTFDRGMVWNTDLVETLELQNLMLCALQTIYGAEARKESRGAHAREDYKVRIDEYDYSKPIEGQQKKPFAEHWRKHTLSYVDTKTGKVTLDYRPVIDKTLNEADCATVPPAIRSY
T4 sequence (P21913 31-282): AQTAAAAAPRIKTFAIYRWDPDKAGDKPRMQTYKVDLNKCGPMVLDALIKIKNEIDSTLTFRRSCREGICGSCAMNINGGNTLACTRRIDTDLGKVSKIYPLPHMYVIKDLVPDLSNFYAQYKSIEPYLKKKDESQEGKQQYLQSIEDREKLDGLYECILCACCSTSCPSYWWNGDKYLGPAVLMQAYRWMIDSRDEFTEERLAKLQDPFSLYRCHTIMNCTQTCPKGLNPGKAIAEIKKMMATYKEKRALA
T4 sequence (Q641Z9 30-169 limits assumed): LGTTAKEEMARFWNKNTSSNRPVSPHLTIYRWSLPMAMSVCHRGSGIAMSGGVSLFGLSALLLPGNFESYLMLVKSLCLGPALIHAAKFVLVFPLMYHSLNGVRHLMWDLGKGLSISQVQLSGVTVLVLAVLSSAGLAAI
T4 sequence (Q6PCT8 57-159): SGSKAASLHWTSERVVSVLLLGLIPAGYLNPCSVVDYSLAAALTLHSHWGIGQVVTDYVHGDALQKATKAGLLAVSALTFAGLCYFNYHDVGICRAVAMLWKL

On to `COc1cccc(CCNC2C3CC4CC(C3)CC2C4)c1` (stereo not drawn) [Compound 26], for which the IQ in experiment [1] (Table 7), in experiment [1] (Table 8) and in experiment [1] (Table 9) was −0.8 throughout. Also, the inhibition at 2.5 µM was found to be 19.6% in experiment [2]; 1.8% in experiment [3] (Table 7, read-out: IIIQO); 1.8% in experiment [3] (Table 9, read-out: IIIQo). Besides, the IF in experiment [2] (Table 8) and in experiment [2] (Table 9) was −19.6 in each case. For the same compound, the IIIQO in experiment [3] is recorded as −1.8. Further, in experiment [4], the inhibition came out at 3.3%. For the same compound, the GPDH in experiment [4] (Table 8) and in experiment [4] (Table 9) was −3.3 each time. Also, the ΔΨm in experiment [5] (Table 8, glutamate) was −0.7; in experiment [5] (Table 9, glutamate) it was −0.7.
For `COC(=O)CCC(=O)Nc1ccc(C)cc1` [Compound 53], in experiment [1] (Table 7), the IQ is given as 0.1. Further, the inhibition at 2.5 µM was -1.3% in experiment [2]; -0.8% in experiment [3] (Table 7, read-out: IIIQO); 0.3% in experiment [6]; 0% in experiment [4]. In experiment [4], the inhibition was -0.9%.
Regarding `CCCCCCNC(=O)CCC(=O)O` [Compound 54], the IQ in experiment [1] (Table 7) came out at 2.3. Also, the inhibition at 2.5 µM in experiment [2] is -8%; in experiment [3] (Table 7, read-out: IIIQO), -2.5%; in experiment [6], -4.4%; in experiment [4], -0.9%. The inhibition in experiment [4] is -3.3%.
In the case of `c1ccc2[nH]c(-c3ccc(-c4nc5ccccc5[nH]4)cc3)nc2c1` [Compound 55], in experiment [1] (Table 7), the IQ is on record as −3.9. Also, the inhibition at 2.5 µM is 1.9% in experiment [2]; -3.3% in experiment [3] (Table 7, read-out: IIIQO); -1.5% in experiment [6]; -3.3% in experiment [4]. The inhibition in experiment [4] was -1.5%.
On to `C=C(C)C(=O)Nc1ccc(-c2nc3ccccc3[nH]2)cc1` [Compound 56], for which the IQ in experiment [1] (Table 7) is on record as −0.3. In addition, the inhibition at 2.5 µM in experiment [2] is -0.3%; in experiment [3] (Table 7, read-out: IIIQO), -1.4%; in experiment [6], 2.9%; in experiment [4], -1.5%. The inhibition in experiment [4] is 0.8%.
Compound `O=C(O)CCC(=O)Nc1ccc(-c2nc3cc(NC(=O)CCC(=O)O)ccc3[nH]2)cc1` [Compound 57] registered an IQ in experiment [1] (Table 7) of 3.1. For the same compound, the inhibition at 2.5 µM in experiment [2] was -1.7%; in experiment [3] (Table 7, read-out: IIIQO), -0.4%; in experiment [6] it was -4.2%; in experiment [4], 0.8%. In experiment [4], the inhibition was -0.2%.
Take `O=C(O)CCC(=O)Nc1ccc(Cl)cc1` [Compound 58]: the IQ in experiment [1] (Table 7) was −6.4. The inhibition at 2.5 µM in experiment [2] was -0.1%; in experiment [3] (Table 7, read-out: IIIQO), -0.8%; in experiment [6], -1.5%; in experiment [4], -0.2%. The inhibition in experiment [4] was 1.2%.
Take `CC(=O)Nc1ccc(-c2nc3ccccc3[nH]2)cc1` [Compound 59]: the IQ in experiment [1] (Table 7) was −12.3. For the same compound, the inhibition at 2.5 µM in experiment [2] was 3%; in experiment [3] (Table 7, read-out: IIIQO), 1.3%; in experiment [6] it was 5.1%; in experiment [4], 1.2%. The inhibition in experiment [4] amounted to 4.4%.
Take `O=C(O)CCC(=O)Nc1cccc(-c2nc3ccccc3[nH]2)c1` [Compound 60]: in experiment [1] (Table 7), the IQ is −43.9. In addition, the inhibition at 2.5 µM in experiment [2] was 4.2%; in experiment [3] (Table 7, read-out: IIIQO), -1.1%; in experiment [6] it was 3.4%; in experiment [4] it was 4.4%. In addition, the inhibition in experiment [4] worked out at 48.3%.
Consider `O=C(Nc1ccc(-c2nc3ccccc3[nH]2)cc1)c1ccco1` [Compound 63], for which, in experiment [1] (Table 7), the IQ is given as −6.9. In addition, the inhibition at 2.5 µM was -0.9% in experiment [2]; -1.8% in experiment [3] (Table 7, read-out: IIIQO); -3.5% in experiment [6]; 1.7% in experiment [4]. In addition, the inhibition in experiment [4] was -8.2%.
For `CCOc1ccc(C(=O)Nc2ccc(-c3nc4ccccc4[nH]3)cc2)cc1` [Compound 64], in experiment [1] (Table 7), the IQ is reported as −15.3. In addition, the inhibition at 2.5 µM in experiment [2] was 3.8%; in experiment [3] (Table 7, read-out: IIIQO) it was 1%; in experiment [6], -9.8%; in experiment [4], -8.2%. In addition, the inhibition in experiment [4] came out at 13%.
Take `O=C(O)CCC(=O)Nc1ccc(-c2nc3ccccc3s2)cc1` [Compound 65]: the IQ in experiment [1] (Table 7) is given as −11.0. For the same compound, the inhibition at 2.5 µM in experiment [2] was 1.3%; in experiment [3] (Table 7, read-out: IIIQO) it was 1%; in experiment [6], -0.2%; in experiment [4], 13%. Besides, the inhibition in experiment [4] was determined as 1.9%.
As to `O=C(Nc1ccc(-c2nc3ccccc3[nH]2)cc1)C1CC1` [Compound 66], the IQ in experiment [1] (Table 7) is given as −2.8. Moreover, the inhibition at 2.5 µM in experiment [2] was 0.2%; in experiment [3] (Table 7, read-out: IIIQO), 1.2%; in experiment [6], 2.5%; in experiment [4], 1.9%. Also, the inhibition in experiment [4] was -1.8%.
Regarding `Cc1ccc(NC(=O)CCC(=O)O)cc1` [Compound 67], in experiment [1] (Table 7), the IQ is −11.7. For the same compound, the inhibition at 2.5 µM in experiment [2] was 10.1%; in experiment [3] (Table 7, read-out: IIIQO), 6.5%; in experiment [6], 16.8%; in experiment [4], -1.8%. In addition, in experiment [4], the inhibition is 11.1%.
Consider `CCCC(=O)Nc1ccc(-c2nc3cc4ccccc4cc3[nH]2)cc1` [Compound 68], for which the IQ in experiment [1] (Table 7) is −23.0. For the same compound, the inhibition at 2.5 µM in experiment [2] is 1.3%; in experiment [3] (Table 7, read-out: IIIQO) it was -1.1%; in experiment [6], 3.7%; in experiment [4], 11.1%. Also, the inhibition in experiment [4] amounted to 32.1%.
For `O=C(O)CCC(=O)Nc1ccc(-c2nc3cc(C(=O)c4ccccc4)ccc3[nH]2)cc1` [Compound 69], the IQ in experiment [1] (Table 7) is recorded as −20.1. Also, the inhibition at 2.5 µM in experiment [2] was 1.8%; in experiment [3] (Table 7, read-out: IIIQO), -5.5%; in experiment [6], 6.3%; in experiment [4] it was 32.1%. Also, the inhibition in experiment [4] came to 26%.
For `Cc1ccc2[nH]c(-c3ccc(NC(=O)CCC(=O)O)cc3)nc2c1` [Compound 70], the IQ in experiment [1] (Table 7) is recorded as −0.2. In addition, the inhibition at 2.5 µM in experiment [2] is 2.2%; in experiment [3] (Table 7, read-out: IIIQO) it was 0.4%; in experiment [6], -4.6%; in experiment [4] it was 26%. The inhibition in experiment [4] is 0%.
Turning to `CC1CC(C)(C)N(C=O)c2ccccc21` (stereo not drawn) [Compound 71], the IQ in experiment [1] (Table 7), in experiment [1] (Table 8) and in experiment [1] (Table 9) was 1.6 throughout. Besides, the inhibition at 2.5 µM in experiment [2] was -7%; in experiment [3] (Table 7, read-out: IIIQO) it was -6.3%; in experiment [3] (Table 9, read-out: IIIQo), -6.3%; in experiment [6], 87.6%. Besides, the IF in experiment [2] (Table 8) and in experiment [2] (Table 9) was 7.0 in each case. Also, in experiment [3], the IIIQO worked out at 6.3. Further, the “% Reduction in ROS Production (SDH)” value in experiment [6] (Table 5, 15 μM palmitoyl carnitine, 2.5 μM antimycin A, 2 μM myxothiazol, compounds 2.5 μM, percent change from DMSO) is recorded as −87.6%. The SDH in experiment [6] (Table 8) and in experiment [6] (Table 9) was −87.6 throughout. Further, the inhibition in experiment [4] amounted to 0.6%. Moreover, the GPDH in experiment [4] (Table 8) and in experiment [4] (Table 9) was −0.6 in each case.
